Where two headings read alike, the source gives them in different places.
Legend:
[1] = molecular target: Recombinant human Syk (amino acids 342-635), GST-Syk kinase fusion protein (Homo sapiens (Human), UniProt P43405); experiment: Syk kinase test (Kinase Glo luminescence); format: biochemical
[2] = molecular target: Recombinant human Aurora B (amino acids 1-344) (Homo sapiens (Human), UniProt Q96GD4); experiment: Aurora B kinase test (ADP Glo luminescence); format: biochemical
FLT3 = FLT3 (Homo sapiens (Human), UniProt P36888); experiment: FLT3 kinase test (Z'-LYTE); format: biochemical
How it was run: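 Z'-LYTE FRET format; kinase reaction started with ATP, run 1 h at room temperature, then 1 h development before stop reagent. Controls without compound, without kinase, and phosphopeptide as 100% phosphorylation reference; values reported in M.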

Human GSK3beta = Human GSK3beta (Homo sapiens (Human), UniProt P49841); experiment: GSK 3beta kinase test (Z'-LYTE); format: biochemical; details: read-out: IC50 in μM (GSK3beta-Inhibition)
Procedure: Human GSK3beta (expressed and prified from SF21 cells) is obtained from the University Dundee/Scotland (Dr. James Hastie—Dept. of Biochemistry) in 50 mM Tris (pH7.5); 150 mM NaCl; 0.1 mM EGTA, 270 mM Succrose, 0.1% β-mercaptoethanol, 1 mM benzamidine, 0.2 mM PMSF; sequence see below). The enzyme is diluted to 3.56 μM (168 μg/ml) in enzyme dilution buffer and 6 μl aliquots are stored at −80° C.
The activity of GSK3 kinase protein is measured using the Z′-LYTETM assay technology from Invitrogen (# PV3324).
The assay is performed in 384 black plates from Corning (#3676) in a final volume of 10 μl by adding 5 μl of kinase peptide mix and 2.5 μl of compound dilution. The reaction is started by addition of 2.5 μl of the 4×ATP solution.
Positive controls are reaction mixtures containing no test compound; negative controls (blanks) are reaction mixtures containing no ATP. As a further control, the phosphopeptide solution is added to wells without kinase and without ATP (=100% phosphorylation control).
The non inhibited kinase reaction will result in a phosphorylation corresponding to 20%-30% of the phosphorylation control.
The reaction is performed 1 h at room temperature. After 1h 5 μl of the development solution is added. After a further incubation for 1 h at room temperature 5 μl of the stop reagent is added. Finally the plates are read on a Flex Station II 384 (Molecular Devices).
The output text file is evaluated in an “MS-Excel—VB-Makro” and “GraphPadPrism” (Version 5) (GraphPad Software Inc.) is used to calculate the results. Data for the inhibition of GSK3beta are reported in M. data for the inhibition of the protease are reported in % CTL.

[3] = Human liver microsomal stability test; format: in vitro ADME; details: human liver microsomes; Qh = liver blood flow
Procedure: The metabolic degradation for a specific SYK-inhibitor is performed at 37° C. with pooled human liver microsomes (human liver microsomes are commercially available as “BD UltraPool™” by Corning Life Sciences, Fogostraat 12, 1060 LJ Amsterdam, The Netherlands). The final incubation volume of 100 μl per time point contains TRIS buffer pH 7.6 at RT (0.1 M), magnesium chloride (5 mM), microsomal protein (1 mg/ml) and the test compound at a final concentration of 1 μM.
Following a short preincubation period at 37° C., the reaction is initiated by addition of beta-nicotinamide adenine dinucleotide phosphate in its reduced form (NADPH, 1 mM) and terminated by transfering an aliquot into solvent after different time points. Additionally, the NADPH-independent degradation is monitored in incubations without NADPH, terminated at the last time point.
The quenched (terminated) incubations are then pelleted by centrifugation (10000 g, 5 min).
An aliquot of the supernatant is assayed by LC-MS/MS for the remaining amount of parent compound. The half-life (t1/2 INVITRO) is determined by the slope of the semilogarithmic plot of the concentration-time profile.
The intrinsic clearance (CL_[…]) is calculated by considering the amount of protein in the incubation: CL_[…][μl/min/mg protein]=(Ln 2/(t1/2 INVITRO[min]*protein content[mg/ml]))*1000
The protein content [mg/ml] was determined with the “Bicinchoninic Acid Kit” of Sigma Aldrich (commercially available).
The upscaled intrinsic Clearance (CL_UP_INT) is calculated by considering the liver weight [g liver/kg body weight] and the microsomal recovery [mg protein/g liver]: CL_UP_INT[ml/min/kg]=0.001*CL_[…]*liver weight*microsomal recovery • with microsomal recovery=45 mg protein/g liver • with liver weight=25.7 g liver/kg body weight
The percent hepatic blood flow (% Qh) is finally calculated by considering the human liver blood flow Q [ml/min/kg]: % Qh[%]=((Q*CL_UP_INT)/(Q+CL_UP_INT)/Q)*100 • with liver blood flow (Q)=20.7 ml/min/kg.

[4] = Table 1, read-out: SYK-inhibition IC50-value
[5] = read-out: IC50 in μM (SYK-Inhibition)
[6] = Table 1, read-out: AURB-inhibition IC50-value
[7] = read-out: IC50 in μM (AURB-Inhibition)
[8] = Table 1, read-out: FLT3-inhibition IC50-value
[9] = read-out: IC50 in μM (FLT3-Inhibition)

FLT3, sequence (P36888 27-993): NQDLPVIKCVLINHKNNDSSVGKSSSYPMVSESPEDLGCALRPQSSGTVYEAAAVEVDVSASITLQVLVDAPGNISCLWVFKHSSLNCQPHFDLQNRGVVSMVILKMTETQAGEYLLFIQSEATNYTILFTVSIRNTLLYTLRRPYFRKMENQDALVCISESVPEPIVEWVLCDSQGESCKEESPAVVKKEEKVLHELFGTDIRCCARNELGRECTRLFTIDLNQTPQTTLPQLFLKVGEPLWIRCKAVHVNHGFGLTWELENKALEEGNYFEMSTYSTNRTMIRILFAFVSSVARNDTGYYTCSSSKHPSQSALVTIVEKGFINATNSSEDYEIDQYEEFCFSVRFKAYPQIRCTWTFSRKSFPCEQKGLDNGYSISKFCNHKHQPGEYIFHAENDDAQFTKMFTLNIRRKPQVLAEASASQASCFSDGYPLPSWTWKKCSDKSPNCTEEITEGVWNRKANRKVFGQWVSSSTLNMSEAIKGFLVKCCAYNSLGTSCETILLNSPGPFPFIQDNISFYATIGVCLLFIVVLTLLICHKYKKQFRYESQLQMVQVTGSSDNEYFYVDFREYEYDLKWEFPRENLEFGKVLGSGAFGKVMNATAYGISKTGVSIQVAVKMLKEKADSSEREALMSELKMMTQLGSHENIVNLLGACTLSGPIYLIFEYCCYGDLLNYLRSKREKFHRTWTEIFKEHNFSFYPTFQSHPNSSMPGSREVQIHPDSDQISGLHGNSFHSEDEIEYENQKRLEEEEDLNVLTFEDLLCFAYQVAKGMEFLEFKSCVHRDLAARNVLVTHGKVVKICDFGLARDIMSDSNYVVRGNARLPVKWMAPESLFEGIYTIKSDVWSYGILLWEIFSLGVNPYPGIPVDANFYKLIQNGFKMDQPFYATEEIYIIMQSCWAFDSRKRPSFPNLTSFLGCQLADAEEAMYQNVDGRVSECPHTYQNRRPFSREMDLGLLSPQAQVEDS
Recombinant human Aurora B (amino acids 1-344), sequence (Q96GD4 whole entry, the tested form may be a part): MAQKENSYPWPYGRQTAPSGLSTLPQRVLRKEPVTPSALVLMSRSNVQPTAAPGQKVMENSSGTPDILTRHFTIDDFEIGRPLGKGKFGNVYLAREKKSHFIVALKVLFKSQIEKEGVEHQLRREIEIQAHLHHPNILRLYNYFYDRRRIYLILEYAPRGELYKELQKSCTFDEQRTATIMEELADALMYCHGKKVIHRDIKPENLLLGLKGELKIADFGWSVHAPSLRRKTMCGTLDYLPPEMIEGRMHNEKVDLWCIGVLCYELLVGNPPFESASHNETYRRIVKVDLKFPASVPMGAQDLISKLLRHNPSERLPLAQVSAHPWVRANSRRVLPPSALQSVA
Human GSK3beta, sequence (P49841 whole entry): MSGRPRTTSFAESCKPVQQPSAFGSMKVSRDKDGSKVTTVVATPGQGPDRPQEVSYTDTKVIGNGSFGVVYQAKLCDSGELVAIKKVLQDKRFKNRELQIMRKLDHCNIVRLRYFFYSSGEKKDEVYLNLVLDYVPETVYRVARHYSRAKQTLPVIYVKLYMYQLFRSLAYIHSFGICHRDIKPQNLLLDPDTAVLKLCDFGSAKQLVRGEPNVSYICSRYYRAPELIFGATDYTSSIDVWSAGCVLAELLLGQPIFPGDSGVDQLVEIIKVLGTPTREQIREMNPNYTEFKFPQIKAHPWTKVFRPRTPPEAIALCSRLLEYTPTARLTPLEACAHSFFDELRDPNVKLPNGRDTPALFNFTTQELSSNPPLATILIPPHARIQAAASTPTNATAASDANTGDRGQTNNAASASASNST

SMILES	IC50 [1, 4]	IC50 [1, 5]	IC50 [2, 6]	IC50 [2, 7]	IC50 (FLT3; [8])	IC50 (FLT3; [9])	IC50 (Human GSK3beta)	microsomal stability Cl [% Qh] [3]
C[C@@H](Oc1cc(-c2ccc3c(c2)c(N)nn3C)cc2nn(C)cc12)[C@H]1CNC(=O)C1 [Example 36, (4R)-4-[(1R)-1-[6-(3-amino-1-methyl-indazol-5-yl)-2-methyl-indazol-4-yl]oxyethyl]pyrrolidin-2-one]	0.0172 µM	0.0172 µM	35.2 µM	35.2 µM	2.39 µM	2.39 µM	> 10 µM	<23 % Qh
C[C@@H](Oc1cc(-c2ccc(F)cn2)cc2nn(C)cc12)[C@H]1CNC(=O)C1 [Example 41, (4R)-4-[(1R)-1-[6-(5-fluoro-2-pyridyl)-2-methyl-indazol-4-yl]oxyethyl]pyrrolidin-2-one]	0.164 µM	0.164 µM	> 50 µM	> 50 µM	42.8 µM	42.8 µM	> 10 µM	<23 % Qh
C[C@@H](Oc1cc(-c2ccc(C3CCN(C)CC3)cc2)cc2nn(C)cc12)[C@H]1CNC(=O)C1 [Example 42, (4R)-4-[(1R)-1-[2-methyl-6-[4-(1-methyl-4-piperidyl)-phenyl]indazol-4-yl]oxyethyl]-pyrrolidin-2-one]	0.0167 µM	0.0167 µM	> 50 µM	> 50 µM	0.55 µM	0.55 µM	> 10 µM	<23 % Qh
C[C@@H](Oc1nc(-c2ccc(C(F)F)nc2)cc2nn(C)cc12)[C@H]1CNC(=O)C1 [Example 51, (4R)-4-[(1R)-1-[6-[6-(difluoromethyl)-3-pyridyl]-2-methyl-pyrazolo[4,3-c]pyridin-4-yl]oxyethyl]pyrrolidin-2-one]	0.366 µM	0.366 µM	49.8 µM	49.8 µM	20.9 µM	20.9 µM	> 10 µM	<23 % Qh
COc1cc(-c2cc3nn(C)cc3c(O[C@H](C)[C@H]3CNC(=O)C3)n2)cc(OC)c1OC [Example 52, (4R)-4-[(1R)-1-[2-methyl-6-(3,4,5-trimethoxyphenyl)-pyrazolo[4,3-c]pyridin-4-yl]oxyethyl]pyrrolidin-2-one]	0.0413 µM	0.0413 µM	> 50 µM	> 50 µM	> 50 µM	> 50 µM	> 10 µM	<23 % Qh
COc1ccc(-c2cc3nn(C)cc3c(O[C@H](C)[C@H]3CNC(=O)C3)n2)cn1 [Example 59, (4R)-4-[(1R)-1-[6-(6-methoxy-3-pyridyl)-2-methyl-pyrazolo-[4,3-c]pyridin-4-yl]oxyethyl]-pyrrolidin-2-one]	0.144 µM	0.144 µM	> 50 µM	> 50 µM	46.2 µM	46.2 µM	> 10 µM	<23 % Qh
C[C@@H](Oc1nc(-c2ccc(C(F)(F)F)nc2)cc2nn(C)cc12)[C@H]1CNC(=O)C1 [Example 61, (4R)-4-[(1R)-1-[2-methyl-6-[6-(trifluoromethyl)-3-pyridyl]pyrazolo[4,3-c]pyridin-4-yl]oxyethyl]pyrrolidin-2-one]	0.475 µM	0.475 µM	> 50 µM	> 50 µM	48.1 µM	48.1 µM	> 10 µM	<23 % Qh
C[C@@H](Oc1nc(-c2ccc3c(cnn3C)c2)cc2nn(C)cc12)[C@H]1CNC(=O)C1 [Example 62, (4R)-4-[(1R)-1-[2-methyl-6-(1-methylindazol-5-yl)pyrazolo[4,3-c]pyridin-4-yl]oxyethyl]pyrrolidin-2-one]	0.0193 µM	0.0193 µM	> 50 µM	> 50 µM	4.78 µM	4.78 µM	> 10 µM	<23 % Qh
C[C@@H](Oc1nc(-c2ccc(N3CCN(C)CC3)cc2)cc2nn(C)cc12)[C@H]1CNC(=O)C1 [Example 67, (4R)-4-[(1R)-1-[2-methyl-6-[4-(4-methylpiperazin-1-yl)phenyl]pyrazolo[4,3-c]pyridin-4-yl]oxyethyl]-pyrrolidin-2-one]	0.0152 µM	0.0152 µM	> 50 µM	> 50 µM	1.68 µM	1.68 µM	> 10 µM	34 % Qh
C[C@@H](Oc1nc(-c2ccc3cnn(C)c3c2)cc2nn(C)cc12)[C@H]1CNC(=O)C1 [Example 72, (4R)-4-[(1R)-1-[2-methyl-6-(1-methylindazol-6-yl)pyrazolo[4,3-c]pyridin-4-yl]oxyethyl]pyrrolidin-2-one]	0.0526 µM	0.0526 µM	> 50 µM	> 50 µM	19.6 µM	19.6 µM	1.45 µM	<23 % Qh
COc1cc(-c2cc3nn(C)cc3c(O[C@H](C)[C@H]3CNC(=O)C3)n2)ccc1OC(C)C [Example 81, (4R)-4-[(1R)-1-[6-(4-isopropoxy-3-methoxy-phenyl)-2-methyl-pyrazolo-[4,3-c]pyridin-4-yl]oxyethyl]-pyrrolidin-2-one]	0.024 µM	0.024 µM	48.4 µM	48.4 µM	5.24 µM	5.24 µM	> 10 µM	<23 % Qh
